Reference: US20240050577A1, “CDK INHIBITORS AND PHARMACEUTICAL USES THEREOF” (RISEN (SUZHOU) PHARMA TECH CO., LTD., priority 2022, published 2024)

Each compound was assayed on OVCAR3 cells (assay: Cell proliferation study (Cell Titer Glo, 72 h)). Settings: Homo sapiens, OVCAR-3, luminescence, read-out: IC50, inhibitory effect on cellular proliferation.
Type: cell-based
Experimental: OVCAR3 (Cobioer, CBP60294) cell line in logarithmic growth phase was used for these experiments. The cell density was adjusted to 1.1×10^4/mL and the cells were inoculated into a 96-well cell culture plate (Corning, 3599), 95 μL per well (the number of cells per well was 1×10^3). The culture plate was placed in an incubator, with 5% carbon dioxide, at 37° C. and incubated overnight. On the next day, a 10 mM stock solution of test compound was prepared in DMSO (Sigma, RNBF5902). After gradient dilution, a series of working solutions with different concentrations of test compound was prepared using complete medium. Working solution was added into the corresponding wells of the orifice plate, and the plate was placed in a 5% carbon dioxide incubator and cultivated at 37° C. for 72 h, and then removed from the incubator. To each well was added 50 μL Cell Tier Glo (Promega, G7573), and the plate was incubated at room temperature for 10 min, followed by luminescence detection with an enzyme marker. The inhibition curve was obtained with GraphPad 7.0 software using four-parameter equation.

IC50 [µM]	SMILES
1 to 5	Cc1nc2c(F)cc(-c3nc(NC4CCN(S(=O)(=O)C5CN(CC6CN(c7cc8c(cc7F)C(=O)N(C7CCC(=O)NC7=O)C8=O)C6)C5)CC4)ncc3F)cc2n1C(C)C (stereo not shown) [Compound 109]
0.101 to 1	Cc1nc2c(F)cc(-c3nc(Nc4ccc(S(=O)(=O)C5CCN(CC6CCN(c7cc8c(cc7F)C(=O)N(C7CCC(=O)NC7=O)C8=O)CC6)CC5)cc4)ncc3F)cc2n1C(C)C (stereo not shown) [Compound 110]
< 0.1	Cc1nc2c(F)cc(-c3nc(N[C@@H]4CCN(S(=O)(=O)C5CCN(CC6CCN(c7cc8c(cc7F)C(=O)N(C7CCC(=O)NC7=O)C8=O)CC6)CC5)C[C@H]4O)ncc3F)cc2n1C(C)C (stereo partly shown) [Compound 111]
0.101 to 1	Cc1nc2c(F)cc(-c3nc(N[C@@H]4CCN(S(=O)(=O)C5CCN(CC6CCN(c7cc8c(cc7F)C(=O)N(C7CCC(=O)NC7=O)C8=O)CC6)CC5)C[C@H]4O)ncc3Cl)cc2n1C(C)C (stereo partly shown) [Compound 112]
